How the values were obtained:
[1] = test system: pigweed; assay: Test C pre-/postemergence herbicide test; type: in vivo, Amaranthus retroflexus
How it was run: (§1)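 Pre-emergence: seeds sown in loam/sand blend and treated with compound in surfactant-containing solvent. Post-emergence: plants at 2–18 cm (1- to 4-leaf stage) in peat-based medium sprayed with the same formulation. Visual rating versus controls after 13–15 days in greenhouse, scale 0 (no effect) to 100 (complete control).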

[2] = test system: velvetleaf; assay: Test C pre-/postemergence herbicide test; type: in vivo, Abutilon theophrasti
How it was run: as §1

[3] = test system: barnyardgrass; assay: Test B flooded paddy test; type: in vivo, Echinochloa crus-galli; conditions: 250 g ai/ha, Flood; scale of 0 to 100 where 0 is no effect and 100 is complete control
How it was run: (§2)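 Scored visually 0–100 (0 no effect, 100 complete control) versus controls after 13 to 15 greenhouse days. Treatment: compound added to paddy water kept 3 cm above soil, on 2-leaf-stage plants.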

[4] = test system: johnsongrass; assay: Test C pre-/postemergence herbicide test; type: in vivo, Sorghum halepense
How it was run: as §1

[5] = test system: crabgrass, large; assay: Test C pre-/postemergence herbicide test; type: in vivo, Digitaria sanguinalis
How it was run: as §1

[6] = test system: rice; assay: Test B flooded paddy test; type: in vivo, Oryza sativa; conditions: 250 g ai/ha, Flood; scale of 0 to 100 where 0 is no effect and 100 is complete control
How it was run: as §2

[7] = test system: blackgrass; assay: Test C pre-/postemergence herbicide test; type: in vivo, Alopecurus myosuroides
How it was run: as §1

[8] = test system: sedge, umbrella; assay: Test B flooded paddy test; type: in vivo, Cyperus difformis; conditions: 250 g ai/ha, Flood; scale of 0 to 100 where 0 is no effect and 100 is complete control
How it was run: as §2

[9] = test system: oilseed rape; assay: Test C pre-/postemergence herbicide test; type: in vivo, Brassica napus
How it was run: as §1

[10] = test system: wheat; assay: Test A pre-/postemergence herbicide test; type: in vivo, Triticum aestivum
How it was run: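 Seeds in loam–sand blend received preemergence directed soil spray; separately, plants 2–10 cm at one- to two-leaf stage received postemergence spray, both with test chemicals in non-phytotoxic solvent with surfactant. After ~10 days in greenhouse, injury rated visually against untreated controls, 0 (no effect) to 100 (complete control).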

[11] = test system: wheat (winter wheat); assay: Test C pre-/postemergence herbicide test; type: in vivo, Triticum aestivum
How it was run: as §1

[12] = test system: ragweed; assay: Test C pre-/postemergence herbicide test; type: in vivo, Ambrosia elatior; conditions: Postemergence
How it was run: as §1

[13] = Postemergence, 31 g ai/ha, scale 0 (no effect) to 100 (complete control)
[14] = Postemergence, 62 g ai/ha, scale 0 to 100 (0 no effect, 100 complete control)
[15] = Postemergence, 125 g ai/ha, scale 0 to 100 (0 no effect, 100 complete control)
[16] = Postemergence, 250 g ai/ha, scale 0 to 100 (0 no effect, 100 complete control)
[17] = Preemergence, 62 g ai/ha, scale 0 to 100
[18] = Preemergence, 125 g ai/ha, scale 0 to 100 (0 no effect, 100 complete control)
[19] = Preemergence, 31 g ai/ha, scale 0 to 100, 0 is no effect and 100 is complete control

O=C1NCC(c2ccc(F)c(C(F)(F)F)c2)C1C(=O)Nc1ccccc1F (racemic) [Compound 76]
45: Plant response rating, Johnsongrass [4, 17] | Plant response rating, Johnsongrass [4, 18] | Plant response rating, Wheat [11, 17]
20: Johnsongrass plant response rating [4, 19]
40: Plant response rating (scale of 0 to 100), Pigweed ([1]; Preemergence, 250 g ai/ha) | Plant response rating, Ragweed ([12]; 62 g ai/ha, scale 0 to 100 (0 no effect, 100 complete control)) | Plant response rating, Ragweed ([12]; 125 g ai/ha, scale 0 to 100 (0 no effect, 100 complete control))
70: Plant response rating, Crabgrass, Large [5, 15] | Plant response rating, Wheat [11, 18]
10: Plant response rating, Pigweed [1, 14] | Plant response rating, Pigweed [1, 15] | Plant response rating, Blackgrass [7, 16] | Plant response rating, Oilseed Rape [9, 16]
80: Plant response rating (scale of 0 to 100), Johnsongrass ([4]; Preemergence, 250 g ai/ha) | Plant response rating, Blackgrass [7, 18] | Plant response rating (scale of 0 to 100), Blackgrass ([7]; Preemergence, 250 g ai/ha) | Plant response rating (scale of 0 to 100), Wheat ([11]; Preemergence, 250 g ai/ha)
100: Plant response rating, Crabgrass, Large [5, 18] | Plant response rating (scale of 0 to 100), Crabgrass, Large ([5]; Preemergence, 250 g ai/ha)
50: Plant response rating, Crabgrass, Large [5, 14] | Blackgrass plant response rating [7, 19] | Plant response rating, Blackgrass [7, 17] | Plant response rating, Wheat ([10]; Postemergence, 125 g ai/ha, 0 to 100 scale, 0 no effect, 100 complete control)
75: Plant response rating, Crabgrass, Large [5, 16] | Plant response rating (scale of 0 to 100), Oilseed Rape ([9]; Preemergence, 250 g ai/ha)
0: Plant response rating, Pigweed [1, 17] | Plant response rating, Pigweed [1, 18] | Plant response rating, Velvetleaf [2, 13] | Plant response rating, Velvetleaf [2, 14] | Plant response rating, Velvetleaf [2, 15] | Plant response rating, Velvetleaf [2, 16] | Velvetleaf plant response rating [2, 19] | Plant response rating, Velvetleaf [2, 17] | Plant response rating, Barnyardgrass [3] | Plant response rating, Johnsongrass [4, 13] | Plant response rating, Johnsongrass [4, 14] | Plant response rating, Johnsongrass [4, 15] | Plant response rating, Johnsongrass [4, 16] | Plant response rating, Crabgrass, Large [5, 13] | Plant response rating, Rice [6] | Plant response rating, Blackgrass [7, 13] | Plant response rating, Blackgrass [7, 14] | Plant response rating, Blackgrass [7, 15] | Plant response rating, Sedge, Umbrella [8] | Plant response rating, Oilseed Rape [9, 13] | Plant response rating, Oilseed Rape [9, 14] | Plant response rating, Oilseed Rape [9, 15] | Oilseed Rape plant response rating [9, 19] | Plant response rating, Oilseed Rape [9, 17] | Wheat plant response rating ([10]; Preemergence, 125 g ai/ha, visual rating on 0 to 100 scale (0 no effect, 100 complete control)) | Plant response rating, Wheat ([10]; preemergence, 500 g ai/ha, 0 to 100 scale) | Plant response rating, Wheat [11, 13] | Plant response rating, Wheat [11, 14] | Plant response rating, Wheat [11, 15]
98: Crabgrass, Large plant response rating [5, 19] | Plant response rating, Crabgrass, Large [5, 17]
5: Plant response rating, Pigweed [1, 13] | Plant response rating, Wheat [11, 16]
25: Plant response rating, Velvetleaf [2, 18] | Plant response rating, Ragweed ([12]; 31 g ai/ha, scale 0 (no effect) to 100 (complete control))
55: Plant response rating, Ragweed ([12]; 250 g ai/ha, scale 0 to 100 (0 no effect, 100 complete control))
35: Plant response rating (scale of 0 to 100), Velvetleaf ([2]; Preemergence, 250 g ai/ha) | Wheat plant response rating [11, 19]
30: Plant response rating, Pigweed [1, 16] | Plant response rating, Oilseed Rape [9, 18]
60: Plant response rating, Wheat ([10]; Postemergence, 500 g ai/ha, 0 to 100 scale (0 no effect, 100 complete control))

Source: US10294202B2, “Pyrrolidinones as herbicides” (FMC Corporation, priority 2013, dated 2019)
